This is an account of results in patent US20240158392A1 (Janssen Biotech, Inc., priority 2021, published 2024).

Read-outs that look alike come from different tables or passages of the source.

The target in the assay is SIK2 (Homo sapiens, UniProt Q9H0K1). Kind of assay: SIK2 Enzymatic Assay High Version 2 (High ATP). The class given is biochemical. A digest of the protocol: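 At room temperature, enzyme (6 nM, 2× final) was preincubated with compound for 30 min, then 6 mM ATP and 400 μM HDAC5tide (both 2× final) were added for 2 h. ADP formed was measured by ADP-Glo Max (2 h reagent, 1 h detection) using luminescence.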

Setting [1] is: enzyme 6 nM, 6 mM ATP and 400 μM HDAC5tide (each 2× final concentration), 30 minutes pre-incubation, 2 hours, ADP-Glo Max luminescence, read-out: SIK2 high ATP IC50 (μM) (Test Example 2).

By IC50 is commonly meant the point on the concentration scale where inhibition reaches its midpoint.

Chain of SIK2 (Q9H0K1 whole entry, species assumed): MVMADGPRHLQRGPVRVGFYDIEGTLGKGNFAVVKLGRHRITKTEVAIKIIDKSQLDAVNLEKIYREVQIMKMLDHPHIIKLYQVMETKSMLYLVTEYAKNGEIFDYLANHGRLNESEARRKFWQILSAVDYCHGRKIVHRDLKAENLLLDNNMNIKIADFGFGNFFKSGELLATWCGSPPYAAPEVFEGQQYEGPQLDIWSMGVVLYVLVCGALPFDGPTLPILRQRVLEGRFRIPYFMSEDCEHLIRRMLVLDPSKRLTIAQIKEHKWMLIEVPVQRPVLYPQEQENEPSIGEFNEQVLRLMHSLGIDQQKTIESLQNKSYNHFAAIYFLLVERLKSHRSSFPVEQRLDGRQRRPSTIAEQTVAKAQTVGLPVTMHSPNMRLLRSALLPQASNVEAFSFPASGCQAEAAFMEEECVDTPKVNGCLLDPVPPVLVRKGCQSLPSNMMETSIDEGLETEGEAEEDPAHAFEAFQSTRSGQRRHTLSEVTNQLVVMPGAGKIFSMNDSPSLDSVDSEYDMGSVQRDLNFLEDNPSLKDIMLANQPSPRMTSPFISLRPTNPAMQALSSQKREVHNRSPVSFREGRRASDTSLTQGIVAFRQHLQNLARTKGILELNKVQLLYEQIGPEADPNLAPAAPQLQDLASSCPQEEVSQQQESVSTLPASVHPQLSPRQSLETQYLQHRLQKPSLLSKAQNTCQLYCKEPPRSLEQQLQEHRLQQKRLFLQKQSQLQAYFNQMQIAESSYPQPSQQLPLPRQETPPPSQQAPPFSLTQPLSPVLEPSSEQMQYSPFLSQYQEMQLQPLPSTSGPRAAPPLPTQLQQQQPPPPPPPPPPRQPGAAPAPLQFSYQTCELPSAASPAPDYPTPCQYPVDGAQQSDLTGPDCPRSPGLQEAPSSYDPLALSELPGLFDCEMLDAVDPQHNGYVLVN

For `CC(=O)N1[C@@H]2COC[C@H]1C[C@@H](Oc1cnc(C)cc1-c1ccn3nc(Nc4cc(C(F)(F)F)ccn4)cc3c1)C2` [Example 632, 1-((1R,5S,7s)-7-((6-methyl-4-(2-((4-(trifluoromethyl)pyridin-2-yl)amino)pyrazolo[1,5-a]pyridin-5-yl)pyridin-3-yl)oxy)-3-oxa-9-azabicyclo[3.3.1]nonan-9-yl)ethan-1-one], the half-maximal inhibitory concentration (IC50) came out at 0.00121 µM.

For the compound `Cc1cc(-c2ccn3nc(Nc4cc(C(=O)N(C)C)cc(C)n4)cc3c2)c(OCC(C)(C)O)cn1` [Example 633, 2-[[5-[5-(2-hydroxy-2-methyl-propoxy)-2-methyl-4-pyridyl]pyrazolo[1,5-a]pyridin-2-yl]amino]-N,N,6-trimethyl-pyridine-4-carboxamide], the IC50 under setting [1] worked out at 0.105 µM.

In the case of `CNC(=O)c1ccnc(Nc2cc3cc(-c4cc(C)ncc4O[C@H]4C[C@H]5COC[C@@H](C4)N5C(=O)C4CC4)ccn3n2)c1` [Example 634, 2-((5-(5-(((1R,5S,7s)-9-(cyclopropanecarbonyl)-3-oxa-9-azabicyclo[3.3.1]nonan-7-yl)oxy)-2-methylpyridin-4-yl)pyrazolo[1,5-a]pyridin-2-yl)amino)-N-methylisonicotinamide], the IC50 stood at 0.363 µM.

In the case of `CNC(=O)c1ccnc(Nc2cc3cc(-c4cc(C)ncc4O[C@H]4C[C@H]5COC[C@@H](C4)N5S(=O)(=O)C4CC4)ccn3n2)c1` [Example 635, 2-((5-(5-(((1R,5S,7s)-9-(cyclopropylsulfonyl)-3-oxa-9-azabicyclo[3.3.1]nonan-7-yl)oxy)-2-methylpyridin-4-yl)pyrazolo[1,5-a]pyridin-2-yl)amino)-N-methylisonicotinamide], the IC50 was 0.00197 µM.

On to `Cc1cc(-c2ccn3nc(Nc4cc(C(=O)NC5CC5)cc(C)n4)cc3c2)c(OCC(C)(C)O)cn1` [Example 636, N-cyclopropyl-2-[[5-[5-(2-hydroxy-2-methyl-propoxy)-2-methyl-4-pyridyl]pyrazolo[1,5-a]pyridin-2-yl]amino]-6-methyl-pyridine-4-carboxamide], for which the IC50 under setting [1] was found to be 0.0135 µM.

`CC(=O)N1[C@@H]2COC[C@H]1C[C@@H](Oc1cnc(C)cc1-c1ccn3nc(Nc4ccc(=O)n(C)n4)cc3c1)C2` [Example 637, 6-((5-(5-(((1R,5S,7s)-9-acetyl-3-oxa-9-azabicyclo[3.3.1]nonan-7-yl)oxy)-2-methylpyridin-4-yl)pyrazolo[1,5-a]pyridin-2-yl)amino)-2-methylpyridazin-3(2H)-one] showed an IC50 of 0.00642 µM.

Turning to `Cc1cc(Nc2cc3cc(-c4cc(C)ncc4OCC(C)(C)O)ccn3n2)nc(C(=O)NC2CC2)c1` [Example 638, N-cyclopropyl-6-[[5-[5-(2-hydroxy-2-methyl-propoxy)-2-methyl-4-pyridyl]pyrazolo[1,5-a]pyridin-2-yl]amino]-4-methyl-pyridine-2-carboxamide], the IC50 under setting [1] stood at 0.149 µM.

On to `Cc1cc(-c2ccn3nc(Nc4ccc(C(=O)NC5CC5)cn4)cc3c2)c(OCC(C)(C)O)cn1` [Example 639, N-cyclopropyl-6-[[5-[5-(2-hydroxy-2-methyl-propoxy)-2-methyl-4-pyridyl]pyrazolo[1,5-a]pyridin-2-yl]amino]pyridine-3-carboxamide], for which the IC50 under setting [1] was found to be 0.0887 µM.

With `Cc1cc(-c2ccn3nc(Nc4cc(C)nc(C(=O)NC5CC5)n4)cc3c2)c(OCC(C)(C)O)cn1` [Example 640, N-cyclopropyl-4-[[5-[5-(2-hydroxy-2-methyl-propoxy)-2-methyl-4-pyridyl]pyrazolo[1,5-a]pyridin-2-yl]amino]-6-methyl-pyrimidine-2-carboxamide], under setting [1], the half-maximal inhibitory concentration (IC50) was 0.0295 µM.

With `Cc1ncc(Nc2cc3cc(-c4cc(OC(F)F)ncc4OCC(C)(C)C#N)ccn3n2)cn1` [Example 641, 3-[[6-(difluoromethoxy)-4-[2-[(2-methylpyrimidin-5-yl)amino]pyrazolo[1,5-a]pyridin-5-yl]-3-pyridyl]oxy]-2,2-dimethyl-propanenitrile], under setting [1], the half-inhibitory concentration (IC50) was 0.111 µM.

For `COC(=O)c1ccc(Nc2cc3cc(-c4cc(C)ncc4OCC(C)(C)O)ccn3n2)cc1OC` [Example 642, methyl 4-[[5-[5-(2-hydroxy-2-methyl-propoxy)-2-methyl-4-pyridyl]pyrazolo[1,5-a]pyridin-2-yl]amino]-2-methoxy-benzoate], the concentration for half-maximal inhibition (IC50) under setting [1] worked out at 0.00171 µM.

Regarding `COc1cc(Nc2cc3cc(-c4cc(C)ncc4OCC(C)(C)O)ccn3n2)ccc1C(=O)NC1CC1` [Example 643, N-cyclopropyl-4-[[5-[5-(2-hydroxy-2-methyl-propoxy)-2-methyl-4-pyridyl]pyrazolo[1,5-a]pyridin-2-yl]amino]-2-methoxy-benzamide], the concentration for half-maximal inhibition (IC50) under setting [1] turned out to be 0.157 µM.

On to `Cc1cc(-c2ccn3nc(Nc4cc(C)nc(C(=O)NCC(F)(F)F)n4)cc3c2)c(OCC(C)(C)O)cn1` [Example 644, 4-[[5-[5-(2-hydroxy-2-methyl-propoxy)-2-methyl-4-pyridyl]pyrazolo[1,5-a]pyridin-2-yl]amino]-6-methyl-N-(2,2,2-trifluoroethyl)pyrimidine-2-carboxamide], for which the IC50 under setting [1] amounted to 0.0734 µM.

Turning to `COc1cc(Nc2cc3cc(-c4cc(C)ncc4O[C@H]4CC[C@H](O)CC4)ccn3n2)cc(OC)c1` [Example 645, (1r,4r)-4-((4-(2-((3,5-dimethoxyphenyl)amino)pyrazolo[1,5-a]pyridin-5-yl)-6-methylpyridin-3-yl)oxy)cyclohexan-1-ol], the IC50 under setting [1] came out at 0.325 µM.

Take `COc1cc(Nc2cc3cc(-c4cc(C)ncc4OCC(C)(C)O)ccn3n2)cc(OC)c1` [Example 646, 1-[[4-[2-(3,5-dimethoxyanilino)pyrazolo[1,5-a]pyridin-5-yl]-6-methyl-3-pyridyl]oxy]-2-methyl-propan-2-ol]: the IC50 under setting [1] was 0.0313 µM.

As to `Cc1cc(-c2ccn3nc(Nc4cc(C)nc(C(=O)NCC(C)(C)O)n4)cc3c2)c(OCC(C)(C)O)cn1` [Example 647, 4-[[5-[5-(2-hydroxy-2-methyl-propoxy)-2-methyl-4-pyridyl]pyrazolo[1,5-a]pyridin-2-yl]amino]-N-(2-hydroxy-2-methyl-propyl)-6-methyl-pyrimidine-2-carboxamide], the IC50 under setting [1] amounted to 0.117 µM.

Regarding `COc1cc(Nc2cc3cc(-c4cc(C)ncc4OCC(C)(C)O)ccn3n2)cc(OC(F)F)c1C(=O)NC1CC1` [Example 648, N-cyclopropyl-2-(difluoromethoxy)-4-[[5-[5-(2-hydroxy-2-methyl-propoxy)-2-methyl-4-pyridyl]pyrazolo[1,5-a]pyridin-2-yl]amino]-6-methoxy-benzamide], under setting [1], the IC50 stood at 0.0887 µM.

Regarding `COc1cc(Nc2cc3cc(-c4cc(C)ncc4O[C@H]4CC[C@H](O)CC4)ccn3n2)cc(F)c1C(=O)NC1CC1` [Example 649], under setting [1], the IC50 was determined as 0.166 µM.

On to `Cc1cc(-c2ccn3nc(Nc4cc(C(F)(F)F)c(C(=O)NC(C)C)cn4)cc3c2)c(OCC(C)(C)O)cn1` [Example 650, 6-[[5-[5-(2-hydroxy-2-methyl-propoxy)-2-methyl-4-pyridyl]pyrazolo[1,5-a]pyridin-2-yl]amino]-N-isopropyl-4-(trifluoromethyl)pyridine-3-carboxamide], for which, under setting [1], the IC50 is 0.0868 µM.

With `Cc1cc(-c2ccn3nc(Nc4cc(C(F)(F)F)c(C(=O)NCC(F)(F)F)cn4)cc3c2)c(OCC(C)(C)O)cn1` [Example 651, 6-[[5-[5-(2-hydroxy-2-methyl-propoxy)-2-methyl-4-pyridyl]pyrazolo[1,5-a]pyridin-2-yl]amino]-N-(2,2,2-trifluoroethyl)-4-(trifluoromethyl)pyridine-3-carboxamide], under setting [1], the IC50 is 0.194 µM.
